This note sets out measurements from paper PMC4373826, “Antiviral Effect of Methylated Flavonol Isorhamnetin against Influenza” (PLoS ONE, 2015).

The target of test [1] is T1, influenza virus neuraminidase (Influenza A virus, UniProt P03468).
T1 construct: mixed with an equal volume of the virus solution (50 μL); host or cells: whole virus suspension
Briefly: Neuraminidase inhibition (NAI) assay. Type of test: biochemical. Conditions: 50 μM. How it is done: The neuraminidase inhibition assay was carried out to examine the inhibitory effect of the tested flavonoids on influenza virus neuraminidase activity as described previously. The flavonoid compounds were used at concentrations of 10 μM, 50 μM, and 100 μM. Tamiflu, a specific NA blocker, was used as a control with a dose of 1 μM. This assay was conducted in 96-well plates; each flavonoid concentration (50 μL) was mixed with an equal volume of the virus solution (50 μL) using reaction buffer (sodium acetate buffer 150 mM, pH 7, and 1 mM calcium chloride) and incubated for 30 minutes at 37°C. For initiation of the enzymatic reaction, we added 100 μL of the substrate solution (4-MU-NANA; (2′-(4-methylumbelliferyl)-α-d-N-acetylneuraminic acid, sodium salt hydrate; Sigma-Aldrich) that dissolved in the enzyme buffer [33 mM 2-(N-morpholino) ethanesulfonic acid (MES), pH 6.5, and 4 mM CaCl2] to the final concentration of 100 μM to the flavonoids and the virus mixture (100 μL). This reaction mixture was protected from light and incubated at 37°C for 2 hr under shaking condition. For stopping of the reaction, we added the stop solution (150 μl of 0.014 N NaOH in 83% ethanol) to each well. The fluorescence of the released 4-methylumbelliferone fluorescence was measured using a fluorescence plate reader (Molecular Devices, Sunnyvale, CA, USA) (excitation 365 nm, emission 460 nm). […]

In test [2] the test system is influenza A/PR/8/34 (H1N1) virus particles, chicken RBCs. Conditions: lowest concentration.
Test [3] deals with influenza viral genes HA and NA. Briefly: RT-PCR of viral HA and NA genes. It counts as cell-based, influenza A virus.
Test [4] deals with virus-induced ROS generation in MDCK cells. Briefly: Virus-induced ROS generation assay (H2DCFDA). It counts as cell-based, canine. The conditions noted are these: 50 μM. Here is the method:
For the ROS generation assay, MDCK cells were seeded onto 24-well plates and incubated overnight for 80% confluence. The MDCK cells were infected with the virus as described previously and then treated with the flavonoids (post-treatment method). Intracellular ROS levels were detected using a cell-permeable oxidant-sensitive fluorescent probe, 2′, 7′-dichiorofluorescin diacetate (H2DCFDA, Molecular Probes, Eugene, OR, USA). The cells were incubated with 10 μM of H2DCFDA for 30 min at 37°C in the dark. After incubation, the cells were washed twice and covered with PBS. The average ROS generation was determined by fluorescent images that were captured using Nikon Eclipse TE2000-U fluorescence inverted microscope (Nikon, Tokyo, Japan). In this experiment, we used N-acetyl-L-cysteine (NAC; Sigma-Aldrich), a ROS scavenger reagent, and at a concentration of 15 mM as a positive control treatment.

The subject of test [5] is virus-induced autophagic puncta / acidic vesicular organelles in MDCK cells. Briefly: Virus-induced autophagy assay (AVO staining with AO and MDC). It counts as cell-based, canine. Conditions: 50 μM. How it is done:
To examine the ability of isorhamnetin to block the formation of acidic vesicular organelles (AVOs) after influenza A virus infection, we used various vital staining methods for AVOs, as described previously. Briefly, MDCK cells were cultured on 24-well plates until 80% confluence. Cells were infected with influenza A/PR/08/34 (H1N1) virus as described previously and treated with 50 μM of isorhamnetin using the 3 aforementioned methods of flavonoid treatment (pre-treatment, co-treatment, and post-treatment methods). Cells were stained with 5 μg/mL acridine orange (AO) (Sigma-Aldrich) and 50 μM of monodansylcadaverine (MDC) (Sigma-Aldrich)for 15 min at 37°C and washed 3 times with PBS, after which the cells were examined under a fluorescence microscope (Carl Zeiss, Jena, Germany) to allow detection of autophagic puncta.

The next test relates to ERK. Briefly: Western blot for ERK phosphorylation. The conditions noted are these: 50 μM. It counts as cell-based, canine. Here is the method:
(§1) To prepare whole-cell extracts, cells were washed 3 times using cold PBS, scraped from the dishes, and suspended in protein extraction buffer containing 1% Triton X-100 (Amresco), 100 mM Tris-HCl, 10 mM NaCl, 10% glycerol, 1 mM sodium orthovanadate (Sigma-Aldrich), 50 mM sodium fluoride (Sigma-Aldrich), and 1 mM phenylmethylsulfonyl fluoride (PMSF; Sigma-Aldrich). After incubation on ice for 30 min, lysates were centrifuged and proteins in the supernatants were quantified using the Bradford Protein Assay Reagent (Bio-Rad). Protein samples were separated via 10% SDS-PAGE and transferred to nitrocellulose membranes ([…]; Protran, Newton, NJ, USA). The membranes were blocked using 5% nonfat dry milk and 0.1% Tween-20 in Tris-buffered saline and probed with the primary antibody. Western blotting was performed using antibodies against t-ERK, p-ERK, actin (Santa Cruz Biotechnology, Dallas, TX, USA), and LC3B (Novus Biologicals, San Diego, CA, USA), as well as anti-mouse, anti-rabbit, and anti-goat IgG-peroxidase-conjugated secondary antibodies (Santa Cruz Biotechnology) and an enhanced chemiluminescence (ECL) kit (Amersham Biosciences, Piscataway, NJ, USA).

A further test has as its system LC3B. Briefly: Western blot for LC3B lipidation. It counts as cell-based, canine. Conditions: 50 μM; post-treatment.
Excerpt: Autophagy can also be measured by changes in LC3B localization, because the degree of conversion of LC3B-I to LC3B-II provides an indicator of autophagic activity. Western blotting detected LC3B as 2 bands: cytosolic LC3B-I and membrane-bound LC3B-II (which is bound to the autophagosome membrane). The molecular weight of LC3B-II is greater than that of LC3B-I. However, due to its hydrophobicity, LC3B-II migrates faster in SDS-PAGE, and therefore, has a lower apparent molecular weight.
as §1, with “Western blotting was performed using antibodies against t-ERK, p-ERK, actin (Santa Cruz Biotechnology, Dallas, TX, USA), and LC3B (Novus Biologicals, San Diego, CA, USA), as well as anti-mouse, anti-rabbit, and anti-goat IgG-peroxidase-conjugated secondary antibodies (Santa Cruz Biotechnology) and an enhanced chemiluminescence (ECL) kit (Amersham Biosciences, Piscataway, NJ, USA).” left out
For orientation: In western blotting, separated proteins are transferred to a membrane and probed.

Molecules are shown by their SMILES.

T1 sequence (P03468 whole entry): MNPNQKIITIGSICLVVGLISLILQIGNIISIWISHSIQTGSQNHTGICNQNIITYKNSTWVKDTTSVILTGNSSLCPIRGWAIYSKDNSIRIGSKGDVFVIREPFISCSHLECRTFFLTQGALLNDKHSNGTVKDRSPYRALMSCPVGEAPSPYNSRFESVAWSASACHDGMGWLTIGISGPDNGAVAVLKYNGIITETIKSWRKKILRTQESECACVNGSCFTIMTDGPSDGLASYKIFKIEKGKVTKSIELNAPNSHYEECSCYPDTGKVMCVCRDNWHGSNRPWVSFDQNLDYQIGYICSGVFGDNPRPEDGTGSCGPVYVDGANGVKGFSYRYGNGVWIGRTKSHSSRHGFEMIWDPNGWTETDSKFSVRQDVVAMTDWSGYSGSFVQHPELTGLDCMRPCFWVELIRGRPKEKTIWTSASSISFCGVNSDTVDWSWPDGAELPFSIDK

Regarding `COc1cc(-c2oc3cc(O)cc(O)c3c(=O)c2O)ccc1O` [Isorhamnetin, isorhamnetin], the NA activity result in test [1] is given as “significantly inhibited”. In addition, the “hemolysis of chicken RBCs by the virus particle (HI assay)” value in test [2] is given as “significantly inhibited”. Further, in test [3], the “expression of HA and NA” value was “markedly decreased”. The “virus-induced ROS generation” value in test [4] is reported as “significant reduction”. In test [5] (post-treatment), the “virus-induced autophagic puncta formation and AVO acidification” value is recorded as “almost completely blocked”. In addition, the “virus-induced autophagic puncta formation and acidification of AVOs” value in test [5] (pre-, co-, and post-treatment) was “significantly suppressed”. Also, the “virus-induced ERK phosphorylation” value in the test with ERK was “significantly suppressed”. Moreover, in the test with LC3B, the “lipidation of LC3B-II” value is on record as “significantly suppressed”.
